Reference: PMC5841296, “Inhibition of the Hexosamine Biosynthetic Pathway by targeting PGM3 causes breast cancer growth arrest and apoptosis” (Cell Death & Disease, 2018)

Key:
[1] = target: T1, PGM3 (N-Acetylglucosamine-phosphate Mutase) (Homo sapiens, UniProt O95394); experiment: CETSA, Western blot (cell extract); details: 30 min RT incubation of extract, heated 3 min at 49-70 °C or isothermal at 58 °C; prodrug tested, possible conversion to FR051 in lysate not excluded
T1 sequence (O95394 1-542): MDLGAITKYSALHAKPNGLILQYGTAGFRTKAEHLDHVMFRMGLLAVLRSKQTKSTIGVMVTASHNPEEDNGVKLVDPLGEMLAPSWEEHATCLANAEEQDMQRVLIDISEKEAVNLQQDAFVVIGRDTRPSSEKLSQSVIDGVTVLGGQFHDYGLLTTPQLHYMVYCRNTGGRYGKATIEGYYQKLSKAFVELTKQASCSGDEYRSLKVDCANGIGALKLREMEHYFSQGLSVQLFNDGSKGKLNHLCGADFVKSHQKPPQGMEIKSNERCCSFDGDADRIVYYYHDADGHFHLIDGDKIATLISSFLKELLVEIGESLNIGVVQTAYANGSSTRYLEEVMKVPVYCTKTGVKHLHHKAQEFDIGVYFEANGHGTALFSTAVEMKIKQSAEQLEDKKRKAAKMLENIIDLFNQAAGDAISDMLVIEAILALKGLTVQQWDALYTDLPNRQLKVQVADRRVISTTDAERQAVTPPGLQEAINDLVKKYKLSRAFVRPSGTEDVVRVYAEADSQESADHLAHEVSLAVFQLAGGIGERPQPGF

[2] = target: T1, PGM3 (N-Acetylglucosamine-phosphate Mutase); experiment: ITDRF-CETSA, Western blot (cell extract); assay type: biochemical; design: endogenous full-length protein in MDA-MB-231 soluble extract (freeze-thaw), detected by Western blot; details: 30 min RT incubation of extract, heated 3 min at 58 °C; natural substrate

In the case of `CC(=O)OC[C@H]1O[C@@H]2OC(C)=N[C@@H]2[C@@H](OC(C)=O)[C@@H]1OC(C)=O` [FR054, 2-methyl-(3,4,6-tri-O-acetyl-1,2-dideoxy-α-D-glucopyrano)-[2,1-d]-2-oxazoline], the CETSA [1] is reported as “FR054 markedly increased the accumulation of PGM3 in the soluble fraction”.

With `CC(=O)N[C@H]1C(O)O[C@H](COP(=O)(O)O)[C@@H](O)[C@@H]1O` (some centres unmarked) [GlcNAc-6-P] the “ITDRF CETSA” value [2] was “more potent binding than the natural substrate GlcNAc-6-P”.
